Assay results published in patent US12180187B2, “1-phenyl-5-azinylpyrazolyl-3-oxyalkyl acids and their use for controlling unwanted plant growth” (BAYER AKTIENGESELLSCHAFT, priority 2019, dated 2024).

Legend:
DIGSA [1] = assay: Pre-emergence action against DIGSA, 1280 g/ha; assay type: in vivo, Digitaria sanguinalis; conditions: visual scoring after about 3 weeks vs untreated controls, 100% = plants have died, 0% = like control plants
Text: (§1) 1. Pre-Emergence Herbicidal Effect and Crop Plant Compatibility a) Seeds of mono- and dicotyledonous weed plants are placed in plastic pots in sandy loam soil (doubly sown with one species each of mono- or dicotyledonous weed plants per pot) and covered with soil. The compounds of the invention, formulated in the form of wettable powders (WP) or as emulsion concentrates (EC), are then applied onto the surface of the covering soil as aqueous suspension or emulsion with addition of 0.5% additive at a water application rate equivalent to 600 litres per hectare. After the treatment, the pots are placed in a greenhouse and kept under good growth conditions for the trial plants. After about 3 weeks, the effect of the preparations is scored visually in comparison with untreated controls as percentages. For example, 100% activity=the plants have died, 0% activity=like control plants. 1. Pre-Emergence Effectiveness Tables 1 to 12 below show the effects of selected compounds of the general formula (I) according to Tables 1 and 2 on various harmful plants and at an application rate corresponding to 1280 g/ha, which were obtained by the experimental procedure mentioned above.

ECHCG [2] = assay: Pre-emergence action against ECHCG, 1280 g/ha; assay type: in vivo, Echinochloa crus-galli; conditions: visual scoring after about 3 weeks vs untreated controls, 100% = plants have died, 0% = like control plants
Text: as §1

LOLRI = assay: Pre-emergence action against LOLRI, 1280 g/ha; assay type: in vivo, Lolium rigidum; conditions: visual scoring after about 3 weeks vs untreated controls, 100% = plants have died, 0% = like control plants
Text: as §1

POAAN [3] = assay: Pre-emergence action against POAAN, 1280 g/ha; assay type: in vivo, Poa annua; conditions: visual scoring after about 3 weeks vs untreated controls, 100% = plants have died, 0% = like control plants
Text: as §1

SETVI = assay: Pre-emergence action against SETVI, 1280 g/ha; assay type: in vivo, Setaria viridis; conditions: visual scoring after about 3 weeks vs untreated controls, 100% = plants have died, 0% = like control plants
Text: as §1

AMARE [4] = assay: Pre-emergence action against AMARE, 1280 g/ha; assay type: in vivo, Amaranthus retroflexus; conditions: scored visually after about 3 weeks vs untreated controls (100% = plants have died)
Text: as §1

MATIN [5] = assay: Pre-emergence action against MATIN, 1280 g/ha; assay type: in vivo, Tripleurospermum inodorum (Matricaria inodora); conditions: scored visually after about 3 weeks vs untreated controls (100% = plants have died)
Text: as §1

STEME [6] = assay: Pre-emergence action against STEME, 1280 g/ha; assay type: in vivo, Stellaria media; conditions: scored visually after about 3 weeks vs untreated controls (100% = plants have died)
Text: as §1

VERPE [7] = assay: Pre-emergence action against VERPE, 1280 g/ha; assay type: in vivo, Veronica persica; conditions: scored visually after about 3 weeks vs untreated controls (100% = plants have died)
Text: as §1

ECHCG [8] = assay: Post-emergence action against ECHCG, 1.28 kg/ha; assay type: in vivo, Echinochloa crus-galli; conditions: dosage 1280 g/ha, visual rating about 3 weeks after treatment vs untreated controls
Protocol: (§2) • a) Seeds of mono- and dicotyledonous weed plants are placed in plastic pots in sandy loam soil (twin sowing with one species each of mono- or dicotyledonous weed plants per pot), covered with soil and cultivated in a greenhouse under controlled growth conditions. 2 to 3 weeks after sowing, the test plants are treated at the one-leaf stage. The compounds of the invention, formulated in the form of wettable powders (WP) or as emulsion concentrates (EC), are applied to the green parts of the plants as aqueous suspension or emulsion with addition of 0.5% additive at a water application rate equivalent to 600 litres per hectare. After the test plants have been kept in the greenhouse under optimum growth conditions for about 3 weeks, the activity of the preparations is rated visually in comparison to untreated controls. For example, 100% activity=the plants have died, 0% activity=like control plants. As shown by the results, compounds of the general formula (I) of the invention, in post-emergence treatment, have very good herbicidal efficacy (90% to 100% herbicidal action) against harmful plants such as Abutilon theophrasti, Digitaria sanguinalis, Echinochloa crus-galli, Matricaria inodora, Poa annua, at an application rate of 1.28 kg of active substance per hectare.

POAAN [9] = assay: Post-emergence action against POAAN, 1.28 kg/ha; assay type: in vivo, Poa annua; conditions: dosage 1280 g/ha, visual rating about 3 weeks after treatment vs untreated controls
Protocol: as §2

ABUTH = assay: Post-emergence action against ABUTH, 1.28 kg/ha; assay type: in vivo, Abutilon theophrasti; conditions: dosage 1280 g/ha, visual rating about 3 weeks after treatment vs untreated controls (100% = plants died)
Protocol: as §2

AMARE [10] = assay: Post-emergence action against AMARE, 1.28 kg/ha; assay type: in vivo, Amaranthus retroflexus; conditions: dosage 1280 g/ha, visual rating about 3 weeks after treatment vs untreated controls (100% = plants died)
Protocol: as §2

MATIN [11] = assay: Post-emergence action against MATIN, 1.28 kg/ha; assay type: in vivo, Tripleurospermum inodorum (Matricaria inodora); conditions: dosage 1280 g/ha, visual rating about 3 weeks after treatment vs untreated controls (100% = plants died)
Protocol: as §2

VERPE [12] = assay: Post-emergence action against VERPE, 1.28 kg/ha; assay type: in vivo, Veronica persica; conditions: dosage 1280 g/ha, visual rating about 3 weeks after treatment vs untreated controls (100% = plants died)
Protocol: as §2

ALOMY [13] = assay: Pre-emergence action against ALOMY, 1280 g/ha; assay type: in vivo, Alopecurus myosuroides; conditions: visual scoring after about 3 weeks vs untreated controls, 100% = plants have died, 0% = like control plants
Text: as §1

ALOMY [14] = assay: Post-emergence action against ALOMY, 1.28 kg/ha; assay type: in vivo, Alopecurus myosuroides; conditions: dosage 1280 g/ha, visual rating about 3 weeks after treatment vs untreated controls
Protocol: as §2

DIGSA [15] = assay: Post-emergence action against DIGSA, 1.28 kg/ha; assay type: in vivo, Digitaria sanguinalis; conditions: dosage 1280 g/ha, visual rating about 3 weeks after treatment vs untreated controls
Protocol: as §2

STEME [16] = assay: Post-emergence action against STEME, 1.28 kg/ha; assay type: in vivo, Stellaria media; conditions: dosage 1280 g/ha, visual rating about 3 weeks after treatment vs untreated controls (100% = plants died)
Protocol: as §2

ALOMY [17] = assay: Pre-emergence action at 320 g/ha against ALOMY; assay type: in vivo, Alopecurus myosuroides; conditions: scored visually after about 3 weeks vs untreated controls (100% = plants have died)
Text: (§3) b) Seeds of monocotyledonous and dicotyledonous weed plants and crop plants are placed in plastic or organic planting pots and covered with soil. The compounds of the invention, formulated in the form of wettable powders (WP) or as emulsion concentrates (EC), are then applied onto the surface of the covering soil as aqueous suspension or emulsion with addition of 0.5% additive at a water application rate of 600 l/ha (converted). After the treatment, the pots are placed in a greenhouse and kept under good growth conditions for the trial plants. After about 3 weeks, the effect of the preparations is scored visually in comparison with untreated controls as percentages. For example, 100% activity=the plants have died, 0% activity=like control plants. Tables 13 to 26 below show the effects of selected compounds of the general formula (I) on various harmful plants and at an application rate corresponding to 320 g/ha, which were obtained by the experimental procedure mentioned above.

AMARE [18] = assay: Pre-emergence action at 320 g/ha against AMARE; assay type: in vivo, Amaranthus retroflexus; conditions: visual scoring after about 3 weeks vs untreated controls
Text: as §3

POLCO = assay: Pre-emergence action at 320 g/ha against POLCO; assay type: in vivo, Fallopia convolvulus (Polygonum convolvulus); conditions: visual scoring after about 3 weeks vs untreated controls
Text: as §3

VIOTR = assay: Pre-emergence action at 320 g/ha against VIOTR; assay type: in vivo, Viola tricolor; conditions: dosage 320 g/ha
Text: as §3

| SMILES | Pre-emergence action against DIGSA (DIGSA [1]) [%] | Pre-emergence action against ECHCG (ECHCG [2]) [%] | Pre-emergence action against LOLRI (LOLRI) [%] | Pre-emergence action against POAAN (POAAN [3]) [%] | Pre-emergence action against SETVI (SETVI) [%] | Pre-emergence action against AMARE (AMARE [4]) [%] | Pre-emergence action against MATIN (MATIN [5]) [%] | Pre-emergence action against STEME (STEME [6]) [%] | Pre-emergence action against VERPE (VERPE [7]) [%] | Post-emergence action against ECHCG (ECHCG [8]) [%] | Post-emergence action against POAAN (POAAN [9]) [%] | Post-emergence action against ABUTH (ABUTH) [%] | Post-emergence action against AMARE (AMARE [10]) [%] | Post-emergence action against MATIN (MATIN [11]) [%] | Post-emergence action against VERPE (VERPE [12]) [%] | Pre-emergence action against ALOMY (ALOMY [13]) [%] | Post-emergence action against ALOMY (ALOMY [14]) [%] | Post-emergence action against DIGSA (DIGSA [15]) [%] | Post-emergence action against STEME (STEME [16]) [%] | other results |
| --- | --- | --- | --- | --- | --- | --- | --- | --- | --- | --- | --- | --- | --- | --- | --- | --- | --- | --- | --- | --- |
| O=C(O)COc1nn(-c2ccccc2F)c(-c2cnccn2)c1Br [Example I-003] | 90 | 90 | 90 | 100 | 90 | 90 | 90 | 100 | 90 | 90 | 100 | 90 | 100 | 90 | 90 | – | – | – | – | – |
| O=C(COc1nn(-c2ccccc2F)c(-c2ccc(F)nc2)c1Br)OCc1ccco1 [VII-098] | 100 | 100 | 100 | 100 | 100 | 100 | 90 | 100 | 100 | 90 | 100 | 90 | – | 100 | 90 | 100 | 100 | 100 | – | – |
| COC(=O)COc1nn(-c2cc(F)ccc2F)c(-c2ccc(F)nc2)c1C#N [VII-063] | 100 | – | 100 | 100 | 100 | 100 | 90 | 100 | 100 | – | 100 | – | 100 | 90 | 90 | 100 | 100 | – | 100 | – |
| CCOC(=O)COc1nn(-c2ccccc2F)c(-c2ccc([S+](C)[O-])nc2)c1Br (centres unmarked) [VII-044] | – | – | – | – | – | – | – | – | – | – | – | – | – | – | – | – | – | – | – | Pre-emergence action at 320 g/ha against ALOMY in % (ALOMY [17]): 90%; Pre-emergence action against AMARE in % (AMARE [18]): 90%; Pre-emergence action against POLCO in % (POLCO): 100%; Pre-emergence action against VIOTR in % (VIOTR): 100% |
| CS(=O)(=O)NC(=O)COc1nn(-c2ccccc2F)c(-c2ccnc(F)c2)c1Br [VIII-012] | 100 | 100 | 100 | 100 | 100 | 100 | 100 | – | 100 | 100 | 100 | – | 100 | 100 | 90 | 100 | 100 | 100 | 90 | – |
